Target: Human cytomegalovirus protease (HHV-5)
Assay: Tested in vitro for its binding affinity against Protease

Ki | SMILES
1100 nM | C[C@@H]1[C@H](C)[C@@H]1C(=O)N1C(=O)[C@@H](C)[C@@H]2[C@@H]1CCN2C(=O)[C@@H]1CCCN1S(=O)(=O)c1cccc2c(N(C)C)cccc12 [4-[1-(5-dimethylamino-1-naphthylsulfonyl)tetrahydro-1H-2-pyrrolylcarbonyl]-1-(2,3-dimethylcyclopropylcarbonyl)-3-methylperhydropyrrolo[3,2-b]pyrrol-2-one]
400 nM | C[C@@H]1C(=O)N(c2nccs2)[C@H]2CCN(C(=O)[C@@H]3CCCN3S(=O)(=O)c3cccc4c(N(C)C)cccc34)[C@H]12 [(3S,3aR,6aS)-4-[(S)-1-(5-Dimethylamino-naphthalene-1-sulfonyl)-pyrrolidine-2-carbonyl]-3-methyl-1-thiazol-2-yl-hexahydro-pyrrolo[3,2-b]pyrrol-2-one]

— BindingDB's records for doi:10.1016/s0960-894x(02)00294-9 (Glaxosmithkline, 2002)
